Drawing on ChEMBL document CHEMBL1158107, “Oleanane and taraxerane glycosides from the roots of Gomphrena macrocephala” (J Nat Prod, 2006), this text covers Activity and IC50 for 6 compounds.

pIC50: −log10 of the molar value. Activity calls are given as the source filed them. The rule behind the calls is not given here.

One experiment has as its system HSC-2. Kind of experiment: Cytotoxicity against human HSC2 cells at 100 uM after 24 hrs by MTT assay. The format is functional, cell-based.
Settings: not given
A general note: Tetrazolium dyes change colour on reduction, which living cells bring about.
Regarding `CC1(C)CC[C@]2(C(=O)O[C@@H]3O[C@H](CO)[C@@H](O)[C@H](O)[C@H]3O)CC=C3[C@](C)([C@@H]2C1)[C@H]1O[C@H]1[C@@H]1[C@@]2(C)CC[C@H](O[C@@H]4O[C@H](C(=O)O)[C@@H](O)[C@H](O)[C@H]4O)C(C)(C)[C@@H]2CC[C@@]31C`, the result was inactive.

Take `CC1(C)CC[C@@]23CC[C@]4(C)[C@@](OC2=O)([C@@H]3C1)[C@H]1O[C@H]1[C@@H]1[C@@]2(C)CC[C@H](O[C@@H]3O[C@H](C(=O)O)[C@@H](O)[C@H](O)[C@H]3O)C(C)(C)[C@@H]2CC[C@]14C`: the result was inactive.

Regarding `CC1(C)CC[C@@]23CC[C@]4(C)[C@@](OC2=O)([C@@H]3C1)[C@H]1O[C@H]1[C@@H]1[C@@]2(C)CC[C@H](O[C@@H]3O[C@H](C(=O)O)[C@@H](O)[C@H](O[C@@H]5O[C@H](CO)[C@H](O)[C@H](O)[C@H]5O)[C@H]3O[C@@H]3O[C@H](CO)[C@@H](O)[C@H](O)[C@H]3O)C(C)(C)[C@@H]2CC[C@]14C`, the outcome was inactive.

The test system of another experiment is HSC-2. The experiment in a line: Cytotoxicity against human HSC2 cells after 24 hrs by MTT assay. It is filed as functional, cell-based. The note with it: HSC-2, 24 h.
One may read the pIC50 as −log10 of the IC50, conventionally taken in molar units. A higher pIC50 goes with a small IC50. Regarding `CC1(C)CC[C@@]23CC[C@]4(C)[C@@](OC2=O)([C@@H]3C1)[C@H]1O[C@H]1[C@@H]1[C@@]2(C)CC[C@H](O)C(C)(C)[C@@H]2CC[C@]14C`, the pIC50 was 4.68.

Compound `COc1cc([C@@H]2c3cc4c(cc3[C@@H](O[C@@H]3O[C@@H]5CO[C@@H](C)O[C@H]5[C@H](O)[C@H]3O)[C@H]3COC(=O)[C@H]23)OCO4)cc(OC)c1O` [ETOPOSIDE] gave a pIC50 of 4.62.

On to `CC1(C)CC[C@]2(C(=O)O)CC=C3[C@](C)([C@@H]2C1)[C@H]1O[C@H]1[C@@H]1[C@@]2(C)CC[C@H](O)C(C)(C)[C@@H]2CC[C@@]31C`, for which the pIC50 is 4.68.
